Settings: human, in vivo

AUC_0-6 h: 1423.0 ± 919.5 ng·h/mL
SMILES: N[C@@H](Cc1ccc(O)c(O)c1)C(=O)O [levodopa]

Reference: patent publication US20260130881A1, “SUSTAINED RELEASE DEVICE CONTENTS FOR TREATMENT OF PARKINSON'S DISEASE AND OTHER DISORDERS” (priority 2024, published 2026)
